Assay results reported in patent US7973062B2, “Androgen receptor-ablative agents” (The Ohio State University Research Foundation, priority 2008, dated 2011).
“Also recorded” adds a separate entry of the source. Read-outs that look alike come from different tables or passages of the source.

Key:
Format in all cases: cell-based
[1] = tested on: androgen receptor (AR) expression; experiment: Western blot analysis of AR protein expression in LNCaP cells
Experimental: RT-PCR and Immunoblotting. LNCaP cells were cultured in T25 flasks at an initial density of 1×10^6 cells/flask. After exposure to various compounds at the indicated conditions, cells were subject to total RNA isolation by using an RNeasy mini-kit (QIAGEN, Valencia, Calif.). RNA concentrations were determined by measuring absorption at 260 nm in a spectrophotometer. Aliquots of 6 μg of total RNA from each sample were reverse-transcribed to cDNA using an Omniscript RT Kit (QIAGEN) according to the manufacturer's instructions, using suitable primers.
For immunoblotting, protein extracts were prepared by M-PER Mammalian Protein Extraction Reagent (Pierce, Rockford, Ill.) with freshly added 1% phosphatase and protease inhibitor cocktails (Calbiochem) followed by centrifugation at 13,000×g for 10 min. Supernatant was collected and protein concentration was determined by protein assay reagent (Bio-Rad, CA). Protein extracts were then suspended in 2×SDS sample buffer, and subject to 10% SDS-polyacrylamide gels. After electrophoresis, proteins were transferred to nitrocellulose membranes using a semidry transfer cell. The transblotted membrane was washed twice with Tris-buffered saline containing 0.1% Tween 20 (TBST). After blocking with TBST containing 5% nonfat milk for 1 h, the membrane was incubated with mouse monoclonal anti-AR (Santa Cruz) or anti-β-actin (MP Biomedicals) antibodies (diluted 1:1000) in 1% TBST nonfat milk at 4° C. overnight. After incubation with the primary antibody, the membrane was washed three times with TBST for a total of 30 min, followed by incubation with horseradish peroxidase conjugated goat anti-mouse IgG (diluted 1:2500) for 1 h at room temperature. After three thorough washes with TBST for a total of 30 min, the immunoblots were visualized by enhanced chemiluminescence.

[2] = tested on: AR promoter; experiment: AR promoter-luciferase reporter assay in transiently transfected LNCaP cells; conditions: compounds at 10 μM, 48 h, ciglitazone and Δ2CG at 20 μM
Text: Transfection and Luciferase assay. The 3.6-kilobase AR promoter-linked reporter plasmid p-3600ARCAT was kindly provided by Dr. Chawnshang Chang (University of Rochester Medical Center, Rochester, N.Y.). The AR promoter gene (−3600 to +550) encompassing the transcription start site was isolated by using PCR to generate hAR-luc with suitable primers. The fragment was subcloned into the pGL3 luciferase reporter vector (Promega, Madison, Wis.) at KpnI and BglII in the multiple cloning site. The PPRE-x3-TK-Luc reporter vector contains three copies of the PPAR-response element (PPRE) upstream of the thymidine kinase promoter-luciferase fusion gene and was kindly provided by Dr. Bruce Spiegelman (Harvard University, Cambridge, Mass.). The pCMVSp1 plasmid was purchased from Origene Technologies, Inc. (Rockville, Md.). LNCaP or PC3 cells were transfected with 5 μg of individual plasmids in an Amaxa Nucleofector using a cell line-specific nucleofector kit according to the manufacturer's protocol (Amaxa Biosystems, Cologne, Germany), and then seeded in 6-well plates at 5×10^5 cells per well for 48 h. The transfection efficiency was determined to be 70-80% by transfecting cells with 2 μg of pmaxGFP plasmid, followed by fluorescence microscopy to measure GFP expression. For each transfection, herpes simplex virus thymidine kinase promoter-driven Renilla reniformis luciferase was used as an internal control for normalization.
For the reporter gene assay, after transfection, cells were cultured in 24-well plates in 10% FBS-supplemented RPMI 1640 medium for 48 h, subject to different treatments for the indicated times, collected, and lysed with passive lysis buffer (Promega). Fifty-μl aliquots of the lysates were added to 96-well plates, and luciferase activity was monitored after adding 100 μl of luciferase substrate (Promega) each well by using a MicroLumatPlus LB96V luminometer (Berthold Technologies, Oak Ridge, Tenn.) with the WinGlow software package. All transfection experiments were carried out in six replicate.

[3] = tested on: LNCaP androgen-responsive prostate cancer cells; experiment: MTT cell viability assay, LNCaP cells; conditions: for IC50: Homo sapiens, 5% FBS, read-out: IC50 for suppressing cell viability
Experimental: Cell Counting and Cell Viability Assay. LNCaP or PC-3 cells were placed in six-well plates (2.5×10^5 cells/well) in 10% FBS-supplemented RPMI 1640 for 24 h, and treated with various concentrations of compound 12 for additional 24, 48 and 72 h. Cells were then trypsinized and counted by using a Coulter counter (Model Z1 D/T, Beckman Coulter, Fullerton, Calif.). Cell viability was assessed by using the 3-(4,5-dimethylthiazol-2-yl)-2,5-diphenyl-2H-tetrazolium bromide (MTT) assay in six replicates in 96-well plates. LNCaP or PC-3 cells were seeded at 6000 cells per well in 10% FBS-supplemented RPMI 1640 for 24 h, followed by treatments with various compounds in 5% FBS-supplemented RPMI 1640 at the indicated concentrations. Controls received DMSO at a concentration equal to that in drug-treated cells. After the end of incubation, MTT (0.5 mg/ml) in 10% FBS-supplemented RPMI 1640 was added to each well, and cells were incubated at 37° C. for 2 hours. Medium was removed and the reduced MTT dye was solubilized in DMSO (200 μl/well). Absorbance was determined at 570 nm by a 96-well plate reader.

[4] = tested on: androgen receptor (AR); experiment: Immunocytochemical analysis of AR in LNCaP cells; conditions: 5 μM, 48 h
Experimental: Immunocytochemical Analysis. Cells were seeded onto coverslips in six-well plates (2.5×10^5 cells/well) for 24 h followed by exposure to 5 μM compound 12 for an additional 48 h. After extensive washing with PBS, cells were fixed and permeabilized with PBS containing 0.1% Triton X-100 for 1 h, and then incubated with anti-AR (1:100 dilution) in PBS containing 0.1% Triton X-100, 0.2% bovine serum albumin, 0.5 mM PMSF, and 1 mM DTT at room temperature for 12 h followed by Alexa Fluor 488-conjugated goat anti-mouse IgG (1:100; Molecular Probes) for 2 h. Nuclear counterstaining was performed by mounting with 4,6-diamidino-2-phenylindole (DAPI)-containing medium. Images of immunocytochemically labeled samples were observed using a Nikon microscope (Eclipse TE300).

Compound: CC1(CN2C(=O)S/C(=C\c3ccc(O)c(C(F)(F)F)c3)C2=O)CCCCC1 [Compound 12, 5-(4-Hydroxy-3-trifluoromethyl-benzylidene)-3-(1-methyl-cyclohexylmethyl)-thiazolidine-2,4-dione]
- AR expression level after compound washed out of the medium ([1]; 5 μM, washout then drug-free medium (FIG. 6C)): rapidly restored
- suppression of AR protein expression (in words) ([1]; 10% FBS, 72 h, Western blot): completely inhibited AR expression in LNCaP cells at low μM concentrations; also recorded: an-order-of-magnitude higher potency than ciglitazone
- IC50 ([1]; 72-h exposure, Western blot (FIG. 4C), read-out: IC50 for suppressing AR expression): ~2000 nM
- suppression of AR promoter-luciferase activity / AR transcription (in words) [2]: optimal agents
- inhibition of LNCaP cell viability (in words) ([3]; 48 h): optimal agents
- IC50 ([3]; 48 h): 8000 nM
- IC50 ([3]; 72 h): 3000 nM
- AR levels in the nucleus [4]: substantial decrease in AR levels in the nucleus
